Data as given in patent publication US9522903B2 (priority 2010, dated 2016).

Assays:
[1] = system: rat vascular ring system precontracted with norepinephrine
[2] = system: murine model of renal ischemia-reperfusion injury; set-up: species or system mice; details: mouse, in vivo
[3] = system: rat model of myocardial ischemia-reperfusion injury (MIRI); details: in vivo
[4] = mouse, in vivo, ip

2-cyano-1-(1-hydroxy-2,2,5,5-tetramethylpyrrolidin-3-yl)-3-(pyridin-3-yl)guanidine [compound 2]
ED50 (ex vivo vasodilator potency) compared to pinacidil [1]: one log greater than that of pinacidil | elevation in plasma blood urea nitrogen (BUN) [2]: profoundly attenuated | elevation in plasma creatinine [2]: profoundly attenuated | elevation in renal myeloperoxidase (MPO) [2]: profoundly attenuated | protection against severe renal tubular necrosis (histologic studies) [2]: near total protection | histologic features of injury (myocyte necrosis, edema, neutrophil infiltration) [3]: profoundly attenuated virtually all histologic features of injury | mean arterial pressure (systemic hypotension) [3]: did not produce systemic hypotension | myocardial myeloperoxidase (MPO) [3]: significantly reduced | tissue infarction (infarct size) [3]: significantly reduced | effect on blood glucose levels compared with saline vehicle group [4]: did not exhibit any significant effect
